According to the NIST ThermoML archive (doi:10.1016/j.fluid.2013.01.025):

Legend:
[1] = xn = mol fraction of the nth substance listed; settings: 101 kPa, Liquid, Vibrating tube method
[2] = 101 kPa, Liquid, Vibrating tube method

OCCO [1,2-ethanediol] + O
mass density [kg/m3], [1]
Settings	278.15 K	288.15 K	298.15 K	308.15 K	323.15 K
x1 = 0.02277	1010.24	1008.82	1006.33	1002.99	996.6
x1 = 0.05488	1023.85	1021.56	1018.45	1014.58	1007.61
x1 = 0.07829	1032.87	1030.01	1026.44	1022.21	1014.78
x1 = 0.1012	1040.89	1037.48	1033.52	1028.99	1021.16
x1 = 0.158	1057.7	1053.26	1048.42	1043.17	1034.52
x1 = 0.2	1067.88	1062.86	1057.55	1051.92	1042.75
x1 = 0.299	1085.43	1079.59	1073.54	1067.25	1057.39
x1 = 0.3917	1096.56	1090.28	1083.85	1077.24	1067.02
x1 = 0.5006	1105.57	1098.99	1092.32	1085.51	1075.02
x1 = 0.6041	1111.55	1104.81	1098	1091.09	1080.49
x1 = 0.7063	1115.93	1109.12	1102.24	1095.28	1084.61
x1 = 0.8049	1119.14	1112.26	1105.34	1098.34	1087.65
x1 = 0.9034	1121.73	1114.79	1107.84	1100.82	1090.14
x1 = 0.9535	1122.81	1115.88	1108.92	1101.89	1091.19
x1 = 0.9826	1123.42	1116.49	–	1102.48	1091.78
x1 = 1	1123.8	–	–	–	1092.14

OCCO [1,2-ethanediol]
[2]
Settings	mass density [kg/m3]
278.15 K	1123.8
323.15 K	1092.14

O [water] + OCCO
[1], x2 = 0
Settings	mass density [kg/m3]
278.15 K	999.96
323.15 K	988.03
